Laboratory results reported in patent US20130012548A1, “DEUTERIUM-SUBSTITUTED OMEGA-DIPHENYLUREA AND DERIVATIVES THEREOF AND PHARMACEUTICAL COMPOSITIONS COMPRISING THE COMPOUNDS” (SUZHOU ZELGEN BIOPHARMACEUTICAL CO., LTD., priority 2010, published 2013).

Legend:
[1] = Pharmacokinetic evaluation in rats; type: in vivo; details: Sprague-Dawley, rat, serum, male SD rats, single oral dose 3 mg/kg, in 30% PEG400; for CL/F: read-out: apparent clearance (converted); for AUC(0-inf): read-out: area under the curve (AUC0-∞); for half-life: read-out: half-life (T1/2) (converted)
Method: 8 male Sprague-Dawley rats (7-8 weeks old and body weight about 210 g) were divided into two groups, 4 in each group (rat No.: control group was 13-16; experimental group was 9-12), and orally administrated a single dose at 3 mg/kg of either compound: (a) the undeuterated N-(4-chloro-3-(trifluoromethyl)phenyl)-N′-(4-(2-(N-methyl-aminoformyl)-4-pyridyloxy)phenyl)urea (control compound CM4306) or (b) N-(4-chloro-3-(trifluoromethyl)phenyl)-N′-(4-(2-(N-(methyl-d3)-aminoformyl)-4-pyridyloxy)phenyl)urea (Compound CM4307 of the invention) prepared in Example 1. The pharmacokinetics differences were compared.
The rats were fed with the standard feed, given water and chlordiazepoxide. Chlordiazepoxide was stopped at the last night before experiment, and given again two hours after the administration of the compound. The rats were fasted for 16 hours before the test. The compound was dissolved in 30% PEG400. The time for collecting orbital blood was 0.083, 0.25, 0.5, 1, 2, 4, 6, 8 and 24 hours after administrating the compounds.
The rats were anaesthetized briefly by inhaling ether. A 300 μL orbital blood sample was collected into the tubes containing a 30 μl 1% heparin saline solution. The tubes were dried overnight at 60° C. before being used. After the blood samples were sequentially collected, the rats were anaesthetized by ether and sacrificed.
After the blood samples were collected, the tubes were gently reversed at least five times immediately to mix the contents sufficiently, and placed on the ice. The blood samples were centrifuged at 4° C. at 5000 rpm for 5 minutes to separate the serum and red blood cells. 100 μL serum was removed to a clean plastic centrifugal tube by pipettor, and the name of the compound and time point were labeled on the tube. Serum was stored at −80° C. before LC-MS analysis.

[2] = test system: Human Hepatocellular Carcinoma SMMC-7721; test: Inhibition of tumor growth of SMMC-7721 in nude mice xenograft model; type: in vivo, Balb/c nu/nu nude mice; details: 100 mg/kg po qd × 2 weeks
Method: 70 Balb/c nu/nu nude mice, 6 weeks old, female, were bought from Shanghai Experimental Animal Resource Center (Shanghai B&K Universal Group Limited).
SMMC-7721 cells were commercially available from Shanghai Institutes for Biological Science, CAS (Shanghai, China).
The establishment of tumor nude mice xenograft model: SMMC-7721 cells in logarithmic growth period were cultured. After cell number was counted, the cells were suspended in 1×PBS, and the number of the cell in suspension was adjusted to 1.5×10^7/ml. The tumor cells were inoculated under the skin of right armpit of nude mice with a 1 ml syringe, 3×10^6/0.2 ml/mice. 70 nude mice were inoculated in total.
When the tumor size reached 30-130 mm^3, 58 mice were divided randomly into different groups. […]
Animal body weight and tumor size were tested twice a week during the experiment. Clinical symptoms were recorded every day. At the end of the administration, the tumor size was recorded by taking pictures. […]
The formula for calculating the tumor volume (TV) is: TV=a×b^2/2, wherein a, b independently represent the length and the breadth of the tumor. The formula for calculating the relative tumor volume (RTV) is: RTV=Vt/V0, wherein V0 is the tumor volume at the beginning of the administration, and Vt is the tumor […] when measured. […]

CNC(=O)c1cc(Oc2ccc(NC(=O)Nc3ccc(Cl)c(C(F)(F)F)c3)cc2)ccn1 [CM4306, N-(4-chloro-3-(trifluoromethyl)phenyl)-N′-(4-(2-(N-methylaminoformyl)-4-pyridyloxy)phenyl)urea, reference compound]
CL/F [1]: 6.83 mL/min/kg | AUC(0-inf) [1]: 7330 ± 336 ng·h/mL | half-life [1]: 8.6 ± 1.4 h

[2H]C([2H])([2H])NC(=O)c1cc(Oc2ccc(NC(=O)Nc3ccc(Cl)c(C(F)(F)F)c3)cc2)ccn1 [CM4307, N-(4-chloro-3-(trifluoromethyl)phenyl)-N′-(4-(2-(N-(methyl-d3)aminoformyl)-4-pyridyloxy)phenyl)urea]
CL/F [1]: 4.58 mL/min/kg | AUC(0-inf) [1]: 11300 ± 2470 ng·h/mL | half-life [1]: 11.3 ± 2.1 h | increase of relative value of tumor inhibition compared with CM4306 (32.2%/19.6%−1) [2]: about 60%
